Patent publication US12115209B2, “ROMO1-derived antimicrobial peptides including lysine substitution and variants thereof” (KOREA UNIVERSITY RESEARCH AND BUSINESS FOUNDATION, priority 2019, dated 2024)
In brackets after ≈: the same amount, converted by molar mass. Non-standard residues stand in square brackets, D forms with d. Residues, ends and D or L forms follow the SMILES beside them. No end group written: not given here. Nle = CCCC[C@H](N)C(=O)O

Tests used:
Assay type in all cases: cell-based
[1] = test system: Staphylococcus aureus (ATCC 29213); test: Minimum bactericidal concentration (MBC) assay; conditions: Tables 11-21, no unit printed
Method: (§1) First, each of Pseudomonas aeruginosa (ATCC 27853) and Staphylococcus aureus (ATCC 29213) was cultured in 3% (w/v) TSB (tryptic soy broth) liquid medium at 37° C. and 200 rpm for 4 hours, and then further cultured under the same conditions for 3 hours to a concentration of 5×10^6 CFU/ml. Strain solutions were prepared by diluting each of the further cultured strains with SP (sodium phosphate; 10 mM sodium phosphate, 1% TSB) buffer to a final concentration of 2×10^5 CFU/ml.
(§2) Then, each peptide at varying concentrations (0 μg/ml to 300 μg/ml) was dispensed into each well of a 96-well microplate, and 100 μl (1×10^5 CFU/ml) of each of the prepared strain solutions was added thereto, mixed therewith, and allowed to react with the peptide in an incubator at 37° C. for 1 hour.
(§3) In addition, 30 g/L of TS (tryptic soy) and 15 g/L of agar were dissolved in distilled water and sterilized, and then 25 ml of the solution was poured onto a 100 mm round plate and solidified at room temperature for one day or more, thereby preparing a TS agar plate. 10 μl of each reaction solution of the peptide and the strain was plated on the TS agar plate at a constant size, and incubated in an incubator at 37° C. for 18 hours, and then colony formation on the plate was checked. The minimum bactericidal concentration was defined as the minimum concentration of the peptide at which no colony was formed, and the experimental results are shown in Table 1 below.

[2] = test system: Pseudomonas aeruginosa, Staphylococcus aureus, CRPA, MRSA; test: Increase in antibacterial activity (MBC) compared with KU-5878; conditions: mark = antibacterial activity increased compared with KU-5878
[3] = test system: Methicillin-resistant Staphylococcus aureus (MRSA, ATCC 33591); test: Minimum bactericidal concentration (MBC) assay; conditions: Tables 11-21, no unit printed
Method: First, each of Pseudomonas aeruginosa (ATCC 27853) and Staphylococcus aureus (ATCC 29213) was cultured in 3% (w/v) TSB (tryptic soy broth) liquid medium at 37° C. and 200 rpm for 4 hours, and then further cultured under the same conditions for 3 hours to a concentration of 5×10^6 CFU/ml. Strain solutions were prepared by diluting each of the further cultured strains with SP (sodium phosphate; 10 mM sodium phosphate, 1% TSB) buffer to a final concentration of 2×10^5 CFU/ml. […]
In addition, 30 g/L of TS (tryptic soy) and 15 g/L of agar were dissolved in distilled water and sterilized, and then 25 ml of the solution was poured onto a 100 mm round plate and solidified at room temperature for one day or more, thereby preparing a TS agar plate. 10 μl of each reaction solution of the peptide and the strain was plated on the TS agar plate at a constant size, and incubated in an incubator at 37° C. for 18 hours, and then colony formation on the plate was checked.
Specifically, each type of bacteria was cultured in 3% (w/v) TSB (tryptic soy broth) liquid medium at 37° C. and 200 rpm for 4 hours, and then further cultured under the same conditions for 3 hours to a concentration of 5×10^6 CFU/ml. Strain solutions were prepared by diluting each of the further cultured strains with SP buffer to a final concentration of 2×10^5 CFU/ml.
Then, the KU-5878 peptide at varying concentrations (0 μg/ml to 300 μg/ml) was dispensed into each well of a 96-well microplate, and 100 μl (1×10^5 CFU/ml) of each of the prepared strain solutions was added thereto, mixed therewith, and allowed to react with the peptide in an incubator at 37° C. for 1 hour.
In addition, 10 μl of each reaction solution of the peptide and the strain was plated on the TS agar plate at a constant size, and incubated in an incubator at 37° C. for 18 hours, and then colony formation on the plate was checked.

[4] = test system: Pseudomonas aeruginosa (ATCC 27853); test: Minimum bactericidal concentration (MBC) assay; conditions: Tables 11-21, no unit printed
Method: as §1, §2, §3

CRPA = test: Minimum bactericidal concentration (MBC) assay; conditions: Tables 11-21, no unit printed

| Compound | MBC Staphylococcus aureus [1] [µg/mL] | Increase in activity [2] | MBC MRSA [3] [µg/mL] | MBC Pseudomonas aeruginosa [4] [µg/mL] | MBC CRPA (CRPA) [µg/mL] |
| --- | --- | --- | --- | --- | --- |
| CCCC[C@H](NC(=O)CNC(=O)[C@@H](NC(=O)[C@H](C)NC(=O)[C@H](CCCC)NC(=O)[C@H](Cc1ccccc1)NC(=O)[C@@H](NC(=O)CNC(=O)[C@H](Cc1ccccc1)NC(=O)[C@@H](NC(=O)CNC(=O)CNC(=O)[C@H](CO)NC(=O)[C@H](CCC(N)=O)NC(=O)[C@H](CCCC)NC(=O)[C@H](CCCC)NC(=O)[C@@H](NC(=O)[C@@H](N)CCCCN)[C@@H](C)O)[C@@H](C)O)[C@@H](C)O)[C@@H](C)CC)C(=O)NCC(=O)N[C@H](C(=O)N[C@@H](CCCNC(=N)N)C(=O)O)[C@@H](C)CC [KU-5878-4Nle] (H-KT[Nle][Nle]QSGGTFGTF[Nle]AIG[Nle]GIR-OH; N-terminus and C-terminus assumed) | 90 (≈ 41.8 µM) | antibacterial activity of the peptide was improved | 100 (≈ 46.5 µM) | 110 (≈ 51.1 µM) | 100 (≈ 46.5 µM) |
| -K-MKKGGKFGTFMAIG-GIR [d 58K 60M 75M] | 6 | ◯ | 8 | 6 | 8 |
| KTMMQSGGTFGAFMAIGMGIR [KU-5878-T69A] | 300 | – | 300 | 300 | 300 |
| KTMMQSGGTFGKFMAIGMGIR [KU-5878-T69K] | 130 | – | 150 | 140 | 150 |
| KTMMQSGGTFGT-MAIGMGIR [Peptide 5878-d70F] | 200 | – | 200 | 200 | 200 |
| KTMMQSGGTFGTF-AIG-GIR [5878-d71M, d75M] | 250 | – | 300 | 300 | 300 |
| KTMMQSGGTFGTF-AIGMGIR [Peptide 5878-d71M] | 250 | – | 300 | 250 | 300 |
| KTMMQSGGTFGTFM-IGMGIR [Peptide 5878-d72A] | 150 | – | 160 | 150 | 170 |
| KTMMQSGGTFGTFMA-GMGIR [Peptide 5878-4731] | > 300 | – | > 300 | > 300 | > 300 |
| KTMMQSGGTFGTFMAAGMGIR [KU-5878-I73A] | > 300 | – | > 300 | > 300 | > 300 |
| KTMMQSGGTFGTFMAIGMAIR [KU-5878-G76A] | > 300 | – | > 300 | > 300 | > 300 |
| KTMMQSGGTFGTFMAIGMG-R [Peptide 5878-d77I] | > 300 | – | > 300 | > 300 | > 300 |
| KTMMQSGGTFGTFMAIGMGAR [KU-5878-I77A] | > 300 | – | > 300 | > 300 | > 300 |
| KTMMQSGGTFGTFMAIGMGGR [KU-5878-I77G] | 90 | – | 90 | 80 | 100 |
| KTMMQSGGTFGTFMAIGMGI [KU-5877] | 300 | – | > 300 | 300 | > 300 |
| KTMMQSGGTFGTFMAIGMGIA [KU-5878-R78A] | > 300 | – | > 300 | > 300 | > 300 |
| KTMMQSGGTFGTFMAIGMGIK [KU-5878-R78K] | > 300 | – | > 300 | > 300 | > 300 |
| KTMMQSGGTFGTFMAIGMGIRQ [Peptide 5878-Q] | 180 | – | 180 | 150 | 180 |
| KTMMQSGGTFGTFMAIGMGKR [KU-5878-I77K] | > 300 | – | > 300 | > 300 | > 300 |
| KTMMQSGGTFGTFMAIGMGTR [KU-5878-I77T] | > 300 | – | > 300 | > 300 | > 300 |
| KTMMQSGGTFGTFMAKGMGIR [KU-5878-I73K] | > 300 | – | > 300 | > 300 | > 300 |
| KTMMQSGGTFGTFMAWGMGIR [KU-5878-I73W] | 300 | – | > 300 | 300 | 300 |
| KTMMQSGGTFGTFMGIGMGIR [KU-5878-A72G] | > 300 | – | > 300 | > 300 | > 300 |
| KTMMQSGGTFGTKMAIGMGIR [KU-5878-F70K] | > 300 | – | > 300 | > 300 | > 300 |
| KTMMQSGGTFGTWMAIGMGIR [KU-5878-F70W] | 300 | – | > 300 | 300 | 300 |
| KTMMQSGGTWGTFMAIGMGIR [KU-5878-F67W] | 80 | – | 90 | 80 | 80 |
| KTMMQTGGTFGTFMAIGMGIR [KU-5878-S63T] | > 300 | – | > 300 | > 300 | > 300 |
| KTMMRSGGTFGTFMAIGMGIR [KU-5878-Q62R] | 80 | – | 90 | 80 | 80 |
| KTMMSSGGTFGTFMAIGMGIR [KU-5878-Q62S] | > 300 | – | > 300 | > 300 | > 300 |
| RTMMQSGGTFGTFMAIGMGIR [KU-5878-K58R] | 120 | – | 120 | 120 | 120 |
